Results taken from patent publication US6914045B2, “Glycopeptide antibiotics” (Wyeth Holdings Corporation, priority 2001, dated 2005).
Converted amounts (≈) assume the structure as drawn. Like-named read-outs stand apart in the source and are kept apart here.

Columns and labels:
Experiment in all cases: in vitro antibacterial evaluation, MIC by broth dilution
Assay type in all cases: cell-based
Streptococcus sp. = details: broth dilution, 18 hours at 35° C.
Outline: (§1)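 Read-out: the lowest concentration at which the test strain fails to grow. Serial dilutions (64-0.06 μg/mL) in Muller-Hinton II […], 5×10^5 CFU/mL inoculum, NCCLS M7-A2 procedure.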

Enterococcus sp. = details: broth dilution, 18 hours at 35° C.
Outline: as §1

Staphylococcus sp. = details: broth dilution, 18 hours at 35° C.
Outline: as §1

Escherichia coli = details: Escherichia coli, broth dilution, 18 hours at 35° C.
Outline: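 Broth dilution MIC per NCCLS M7-A2 in Mueller-Hinton II medium, inoculum 5×10^5 CFU/mL, antibiotic range 64-0.06 μg/mL. MIC taken as lowest concentration inhibiting growth.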

Cc1cccc(Oc2ccc(-c3nc4cc(C[C@@H]5NC(=O)[C@H](C(C)c6ccccc6)NC(=O)CNC(=O)[C@H](CO)NC(=O)[C@H](C(O)C6CNC(=N)N6)NC(=O)[C@H](C(O)C6CNC(=N)N6)NC5=O)ccc4o3)cc2)c1 (stereo partly drawn) [Example 41, Cyclo[3-[2-[4-(3-methylphenoxy)phenyl]benzoxazol-5-yl]alanyl-3-(2-iminoimidazolidin-4-yl)-seryl-3-(2-iminoimidazolidin-4-yl)serylserylglycyl-β-methylphenylalanyl]]
MIC Streptococcus pneumoniae (ATCC 6301) (Streptococcus sp.; strain ATCC 6301): 64 µg/mL (≈ 63 µM) | MIC Streptococcus pneumoniae (GC 1894) (Streptococcus sp.; strain GC 1894): 64 µg/mL (≈ 63 µM) | MIC Streptococcus pyogenes (GC 4563) (Streptococcus sp.; strain GC 4563): 32 µg/mL (≈ 31.5 µM) | MIC Streptococcus agalactiae (GC 4564) (Streptococcus sp.; strain GC 4564): 64 µg/mL (≈ 63 µM) | MIC Streptococcus pneumoniae (GC 4565) (Streptococcus sp.; strain GC 4565): >64 µg/mL | MIC (Streptococcus sp.; strain ATCC 6301, read-out: MIC Streptococcus pneumoniae (ATCC 6301)): 64 µg/mL (≈ 63 µM) | MIC (Streptococcus sp.; strain GC 1894, read-out: MIC Streptococcus pneumoniae (GC 1894)): 64 µg/mL (≈ 63 µM) | MIC (Streptococcus sp.; strain GC 4563, read-out: MIC Streptococcus pyogenes (GC 4563)): 32 µg/mL (≈ 31.5 µM) | MIC (Streptococcus sp.; strain GC 4564, read-out: MIC Streptococcus agalactiae (GC 4564)): 64 µg/mL (≈ 63 µM) | MIC (Streptococcus sp.; strain GC 4565, read-out: MIC Streptococcus pneumoniae (GC 4565)): > 64 µg/mL | MIC Enterococcus faecalis (ATCC 29212) (Enterococcus sp.; strain ATCC 29212): 64 µg/mL (≈ 63 µM) | MIC Enterococcus faecalis (GC 2242) (Enterococcus sp.; strain GC 2242): 64 µg/mL (≈ 63 µM) | MIC Enterococcus faecium (GC 2243) (Enterococcus sp.; strain GC 2243): 64 µg/mL (≈ 63 µM) | MIC Enterococcus faecalis (GC 2691) (Enterococcus sp.; strain GC 2691): 64 µg/mL (≈ 63 µM) | MIC Enterococcus faecalis (GC 3059) (Enterococcus sp.; strain GC 3059): >64 µg/mL | MIC Enterococcus faecalis (GC 4552) (Enterococcus sp.; strain GC 4552): 64 µg/mL (≈ 63 µM) | MIC Enterococcus faecalis (GC 4553) (Enterococcus sp.; strain GC 4553): 64 µg/mL (≈ 63 µM) | MIC Enterococcus faecalis (GC 4554) (Enterococcus sp.; strain GC 4554): 64 µg/mL (≈ 63 µM) | MIC Enterococcus faecium (GC 4556) (Enterococcus sp.; strain GC 4556): 32 µg/mL (≈ 31.5 µM) | MIC Enterococcus faecium (GC 4557) (Enterococcus sp.; strain GC 4557): 64 µg/mL (≈ 63 µM) | MIC Enterococcus avium (GC 4558) (Enterococcus sp.; strain GC 4558): 64 µg/mL (≈ 63 µM) | MIC Enterococcus faecalis (GC 6189) (Enterococcus sp.; strain GC 6189): >64 µg/mL | MIC (Enterococcus sp.; strain ATCC 29212, read-out: MIC Enterococcus faecalis (ATCC 29212)): 64 µg/mL (≈ 63 µM) | MIC (Enterococcus sp.; strain GC 2242, read-out: MIC Enterococcus faecalis (GC 2242)): 64 µg/mL (≈ 63 µM) | MIC (Enterococcus sp.; strain GC 2243, read-out: MIC Enterococcus faecium (GC 2243)): 64 µg/mL (≈ 63 µM) | MIC (Enterococcus sp.; strain GC 2691, read-out: MIC Enterococcus faecalis (GC 2691)): 64 µg/mL (≈ 63 µM) | MIC (Enterococcus sp.; strain GC 3059, read-out: MIC Enterococcus faecalis (GC 3059)): > 64 µg/mL | MIC (Enterococcus sp.; strain GC 4552, read-out: MIC Enterococcus faecalis (GC 4552)): 64 µg/mL (≈ 63 µM) | MIC (Enterococcus sp.; strain GC 4553, read-out: MIC Enterococcus faecalis (GC 4553)): 64 µg/mL (≈ 63 µM) | MIC (Enterococcus sp.; strain GC 4554, read-out: MIC Enterococcus faecalis (GC 4554)): 64 µg/mL (≈ 63 µM) | MIC (Enterococcus sp.; strain GC 4556, read-out: MIC Enterococcus faecium (GC 4556)): 32 µg/mL (≈ 31.5 µM) | MIC (Enterococcus sp.; strain GC 4557, read-out: MIC Enterococcus faecium (GC 4557)): 64 µg/mL (≈ 63 µM) | MIC (Enterococcus sp.; strain GC 4558, read-out: MIC Enterococcus avium (GC 4558)): 64 µg/mL (≈ 63 µM) | MIC (Enterococcus sp.; strain GC 6189, read-out: MIC Enterococcus faecalis (GC 6189)): > 64 µg/mL | MIC (Staphylococcus sp.; Staphylococcus, strain GC 4543, read-out: MIC Staphylococcus aureus-SMITH (GC 4543)): > 64 µg/mL | MIC (Staphylococcus sp.; Staphylococcus, strain GC 4547, read-out: MIC Coagulase Negative Staphylococcus (GC 4547)): 64 µg/mL (≈ 63 µM) | MIC (Staphylococcus sp.; Staphylococcus, strain GC 4548, read-out: MIC Coagulase Negative Staphylococcus (GC 4548)): > 64 µg/mL | MIC (Staphylococcus sp.; Staphylococcus, strain GC 4549, read-out: MIC Coagulase Negative Staphylococcus (GC 4549)): 32 µg/mL (≈ 31.5 µM) | MIC (Staphylococcus sp.; Staphylococcus, strain GC 4551, read-out: MIC Coagulase Negative Staphylococcus (GC 4551)): 64 µg/mL (≈ 63 µM) | MIC (Staphylococcus sp.; strain ATCC 29213, read-out: MIC Staphylococcus aureus (ATCC 29213)): > 64 µg/mL | MIC (Staphylococcus sp.; strain GC 1131, read-out: MIC Staphylococcus aureus (GC 1131)): > 64 µg/mL | MIC (Staphylococcus sp.; strain GC 3051, read-out: MIC Staphylococcus aureus (GC 3051)): > 64 µg/mL | MIC (Staphylococcus sp.; strain GC 3053, read-out: MIC Staphylococcus aureus (GC 3053)): > 64 µg/mL | MIC (Staphylococcus sp.; strain GC 4541, read-out: MIC Staphylococcus aureus (GC 4541)): > 64 µg/mL | MIC (Staphylococcus sp.; strain GC 4542, read-out: MIC Staphylococcus aureus (GC 4542)): > 64 µg/mL | MIC (Staphylococcus sp.; strain GC 4544, read-out: MIC Staphylococcus aureus (GC 4544)): > 64 µg/mL | MIC (Staphylococcus sp.; strain GC 4545, read-out: MIC Staphylococcus aureus (GC 4545)): > 64 µg/mL | MIC Staphylococcus aureus (ATCC 29213) (Staphylococcus sp.; strain ATCC 29213): >64 µg/mL | MIC Staphylococcus aureus (GC 3051) (Staphylococcus sp.; strain GC 3051): >64 µg/mL | MIC Staphylococcus aureus (GC 3053) (Staphylococcus sp.; strain GC 3053): >64 µg/mL | MIC Staphylococcus aureus (GC 4541) (Staphylococcus sp.; strain GC 4541): >64 µg/mL | MIC Staphylococcus aureus (GC 4542) (Staphylococcus sp.; strain GC 4542): >64 µg/mL | MIC Staphylococcus aureus (GC 4544) (Staphylococcus sp.; strain GC 4544): >64 µg/mL | MIC Staphylococcus aureus (GC 4545) (Staphylococcus sp.; strain GC 4545): >64 µg/mL | MIC (Staphylococcus sp.; strain GC 4546, read-out: MIC Staphylococcus haemolyticus (GC 4546)): 64 µg/mL (≈ 63 µM) | MIC (Escherichia coli; ATCC25922, strain ATCC 25922, read-out: MIC Escherichia coli (ATCC 25922)): > 64 µg/mL | MIC (Escherichia coli; strain GC 4559, read-out: MIC Escherichia coli (GC 4559)): > 64 µg/mL | MIC (Escherichia coli; strain GC 4560, read-out: MIC Escherichia coli (GC 4560)): > 64 µg/mL
